The text below walks through data of patent publication US10913714B2, “Pyrrole sulfonyl derivative, preparation method and medical use thereof” (JIANGSU CAREPHAR PHARMACEUTICAL CO., LTD, priority 2015, dated 2021).

Where a name gives a salt, the structure may show the parent alone. Marks after values point to notes of the source that are not given here.

This test deals with gastric acid secretion induced by histamine. As to the kind of experiment: Gastric acid secretion induced by histamine in pylorus-ligated rats. The test is classed as in vivo. As to conditions: SD rat; for Total acid content: 2 mg/kg by gavage 1 h before histamine, total acid of 3 h; for Acid inhibiting rate %: 2 mg/kg by gavage, compared with model control. From the text: Test Case 3: Studies on the Effect of EXP 1, TAK-438 and EXP 14 on Gastric Acid Secretion Induced by Histamine Experimental Materials 1) Animals
SD rat, class SPF, male, 180-220 g; provided by Zhejiang Experimental Animal Center; production permit no.: SCXK (Z) 2014-0001.
Compound EXP 1, dissolved with a small amount of acetic acid (about 1.10N EXP 1), 0.9% sodium chloride solution to a clear liquid with needed concentration before use.
>Compound TAK-438, dissolved with 0.9% sodium chloride solution to a clear liquid with needed concentration before use.
Compound EXP 14, dissolved with a small amount of acetic acid (about 1.10N EXP 14), 0.9% sodium chloride solution to a clear liquid with needed concentration before use.
Fetching 60 SD rats of class SPF with a weight of 180-220 g; dividing the rats into 5 groups as per weights randomly, including Group EXP 1 (2 mg/kg), Group TAK-438 (2 mg/kg, as per free alkali), Group EXP 14 (2 mg/kg), Group negative control (normal saline of equal volume) and Group model control (normal saline of equal volume); 12 rats per group. Absolute diet for 24 h, water is allowed. After 24 h, administrating drugs to the tested compound groups A, B and C by gavage with a volume of 1 ml/100 g; each group is administered once; the negative control and model negative control groups are administrated by gavage with normal saline of equal volume. Narcotizing the rat with 300 mg/kg of chloral hydrate (1 ml/100 g) and fixing it onto the rat board; cutting to open the abdominal wall along the medioventral line from the mucronate cartilage with an incision of 2-3 cm; slightly pushing the left costal margin upward to expose the stomach in the incision. Ligaturing the pylorus thereunder (leave alone the adjacent blood vessels) and then suturing the abdominal incision. Giving histamine dihydrochloride (30 mg/10 m/kg) hypodermically to the rat 1 h after the tested compound or normal saline are administrated. Choking the rat to death with excessive CO2 3 h after the histamine is given; taking out the stomach and collecting the gastric contents for centrifugation at 3000 rpm/min; adjusting the PH value of the acid fluid to 7.0 with 0.1 mol/L of NaOH titration and then calculating the total acid content of the 3 h. Refer to Table 3 for results.

For `CNCc1cc(-c2ccccc2F)n(S(=O)(=O)c2cccnc2)c1` [TAK-438, 5-(2-fluorophenyl)-N-methyl-1-(3-pyridylsulfonyl)-1H-pyrrole-3-methamine fumarate], the Total acid content is given as 0.52 ± 0.10** 10^−4 mol and the “Acid inhibiting rate %” value was found to be 52.3%.

Consider `CNCc1cc(-c2ccccc2F)n(S(=O)(=O)c2cccc(OCCCOC)c2)c1` [EXP 1, 1-(5-(2-fluorobenzene)-1-((3-(3-methoxypropoxy)phenyl)sulfonyl)-1H-pyrrole-3-yl)-N-methyl methylamine], for which the Total acid content was 0.49 ± 0.12** 10^−4 mol and the “Acid inhibiting rate %” value is on record as 55.4%.
